Experimental data: patent US20260294947A1, “FUCOSYLATED MAMMALIAN MILK OLIGOSACCHARIDE FOR USE IN THE PREVENTION OR TREATMENT OF SHIPPING FEVER” (Inbiose N.V., priority 2023, published 2026)

What was measured:
acute pneumonia = test: Acute pneumonia incidence in calves fed 2′FL-supplemented calf milk replacer versus placebo (standard CMR); format: in vivo, Holstein Friesian calves (bovine)
Protocol: (§1) Holstein Friesian calves (2-3 week-old, 95% male) were transported from different farms to the experimental facility of Denkavit (Voorthuizen, The Netherlands) where the animals were reared. The experiment was performed in two trial rounds.
(§2) The calves were randomly and gender-equally divided in two groups based on experimental calf milk replacer: group A (placebo-standard calf milk replacer (CMR) powder of the farm) and group B (standard CMR powder supplemented with 0.005% drywt. 2′-fucosyllactose (2′FL, see Example 1). The calf milk replacer was administered as a liquid to the calves (water was added to the CMR powder to obtain 150 gram CMR powder per liter liquid CMR). Each group involved […], assigned into 12 rows. Each row contained 4 pens, where six calves were living in one pen.
(§3) 2′-fucosyllactose was supplied to calves via CMR (major components are presented in Table 1) during the whole trial, lasting 6 months. The Start CMR was given from arrival till week 6, which then switched to the Gold Alfa CMR up to day 136. The remaining time calves were fed with the Omega CMR. Solid feed (concentrates) was introduced gradually from arrival, starting with the Avance Alfa up till day 126, then replaced by the Avance Omega till the end of the experiment. Feed was provided ad libitum to calves twice a day (morning and evening) and were recorded daily based on rows (concentrates, straw, corn silage) or groups (CMR) consumption.
(§4) The calves were randomly and gender-equally divided in two groups based on experimental calf milk replacer (CMR): group A (placebo-standard CMR powder of the farm), group B (standard CMR powder supplemented with 0.005% drywt. 2′FL). The calf milk replacer was administered as a liquid to the calves (water was added to the CMR powder to obtain 150 gram CMR powder per liter liquid CMR). Each group involved 100 calves, assigned into four rows (25 calves per row) of two compartment blocks. Each row contained five pens, where four to six calves were living in one pen.
(§5) Starting from the day of arrival, calves received standard calf milk replacer (CMR) during a period of 9 weeks. Group A only received the CMR, while the CMR supplied to groups B was supplemented with 0.005% drywt. 2′FL. Calf starter (concentrates) and straw were introduced gradually from day 6 till the end of the experiment (12 weeks) while calves had access to corn silage at weeks 11 and 12. Feed were provided ad libitum to calves twice a day (morning and evening) and were recorded daily based on rows (concentrates, straw, corn silage) or groups (CMR) consumption.
Calves were followed up by the farm staffs since arrival till the end of the trial. Fecal consistency in scale 1-4 (Larson et al., 1977, J. Dairy Science, 60 (6): p. 989-991) was recorded daily for the first ten days since arrival. Number of mortalities and signs of adverse effects were registered daily. The animals were treated prophylactically or metaphylactically (herd treatment) with 1 g oxytetracycline 100% (at day 4), 0.5 g Doxylin 50% WSP and 0.8 g bromhexine 2% (at day 13), and 3.1 ml Tilmicosol 250 mg/ml (at day 24) to prevent and/or treat acute lung inflammation. Individual treatments were followed by remark of the farm staffs and diagnostic of farm veterinary practitioners. Disease incidences and medicinal usage based on individual treatments were recorded to compare between treatment groups. Live weight of the animals was monitored at arrival (d1), two weeks (W2), six weeks (W6), ten weeks (W10) and 12 weeks (W12) and 17 weeks (W17) since arrival. Feed conversion ratio (FCR) of each period was computed based on the input of daily weight gain and daily feed intake. […]

diarrhea = test: Diarrhea incidence in calves fed 2′FL-supplemented calf milk replacer versus placebo (standard CMR); format: in vivo, Holstein Friesian calves (bovine); conditions: for Diarrhea cases: group B, 0.005% drywt. 2′FL in CMR
Protocol: as §1, §2, §3
The calves were randomly and gender-equally divided in two groups based on experimental calf milk replacer (CMR): group A (placebo-standard CMR powder of the farm), group B (standard CMR powder supplemented with 0.005% drywt. 2′FL). […]
Starting from the day of arrival, calves received standard calf milk replacer (CMR) during a period of 9 weeks. […] Feed were provided ad libitum to calves twice a day (morning and evening) and were recorded daily based on rows (concentrates, straw, corn silage) or groups (CMR) consumption.
Calves were followed up by the farm staffs since arrival till the end of the trial. Fecal consistency in scale 1-4 (Larson et al., 1977, J. Dairy Science, 60 (6): p. 989-991) was recorded daily for the first ten days since arrival. […] Disease incidences and medicinal usage based on individual treatments were recorded to compare between treatment groups. Live weight of the animals was monitored at arrival (d1), two weeks (W2), six weeks (W6), ten weeks (W10) and 12 weeks (W12) and 17 weeks (W17) since arrival. […]
(§6) Odds ratios and risk ratios of the pneumonia and diarrhea incidence were evaluated with the epitools R package using the Wald test (cran.r-project.org/web/packages/epitools/epitools.pdf). […]

[1] = Mortality and adverse effects in calves (health and safety observation); format: in vivo, Holstein Friesian calves (bovine)
Protocol: as §1, §2, §3, §4, §5
Calves were followed up by the farm staffs since arrival till the end of the trial. Fecal consistency in scale 1-4 (Larson et al., 1977, J. Dairy Science, 60 (6): p. 989-991) was recorded daily for the first ten days since arrival. Number of mortalities and signs of adverse effects were registered daily. […] Disease incidences and medicinal usage based on individual treatments were recorded to compare between treatment groups. Live weight of the animals was monitored at arrival (d1), two weeks (W2), six weeks (W6), ten weeks (W10) and 12 weeks (W12) and 17 weeks (W17) since arrival. […]
as §6

jejunum = test: Jejunal RNAseq (transcriptomics), Gene Ontology enrichment analysis of differentially expressed genes, 2′FL versus placebo; format: in vivo, Bos taurus (calves); conditions: day 71 (W11)
Protocol: One healthy and middle weight calf of one pen per group was picked for euthanization in the slaughterhouse at day 71 (W11) (8 calves in total, 4 per group). A 20 cm segment of jejunum without Peyer's patch was excised and washed three times with physiological serum using a 30 ml syringe. A small segment (2-3 mm) was further excised and stored in 2 ml RNA protect tissue reagent (Qiagen) containing RNA preservation buffer for transportation at room temperature before long-term storage at −80° C.
Jejunal specimens stored in RNA protect tissue reagent were excised further to transfer 50 mg tissue into 2 ml tubes. The tissues were disrupted and homogenized using one stainless steel bead 5 mm in 900 μl QIAzol lysis reagent (QIAgen) in combination with a FASTPREP® 24 device. The homogenates were further manipulated according to the guidance of the manufacturer of the RNeasy plus universal tissue mini kit (QIAgen). The total purified RNA were eluted in 40 μl and quickly checked for the concentration and quality using Nanodrop (Implen NANOPHOTOMETER®) before storage at −80° C.
Total RNA was submitted to Azenta (Genewiz, Germany) to perform RNA sequencing. The total RNA was checked again for quality and concentration using Qubit and fragment analyzer before the mRNA were selected for polyA library preparation and sequenced using the ILLUMINA® Novaseq™ 2×150 bp technology platform guaranteed 20 million paired-end reads per samples (40 million reads).
RNA sequencing reads were quality-checked with fastqc (bioinformatics.babraham.ac.uk/projects/fastqc/) and trimmed with Trimmomatic (Bolger et al., 2014, Bioinformatics 30 (15): p. 2114-2120). Reads were aligned to the cow reference (Bos_taurus_UMD_3.1.1) using the genome alignment method in STAR (Dobin et al., 2013, Bioinformatics 29 (1): p. 15-21); Gene expression was quantified by featureCounts (Liao et al., 2014, Bioinformatics 30 (7): p. 923-930) and differential expression analysis was performed using DEseq2 (Love et al., 2014, Genome Biol. 15 (2): 550). Enrichment analysis of differential expressed was done in clusterProfiler (Wu et al., 2021, Innovation 2 (3): 100141) based on Gene Ontology.

For 2′-fucosyllactose [2′FL], the “Relative risk of getting acute pneumonia, group B versus placebo” value (acute pneumonia; round 1 (veal calf), 0.005% drywt. 2′FL in CMR) was 0.86, the Acute pneumonia cases (acute pneumonia; round 1 (veal calf), group B, 0.005% drywt. 2′FL in CMR, 6 months, out of 290 calves, placebo 111 cases) was 96 cases and the “Relative risk of getting acute pneumonia, group B versus placebo” value (acute pneumonia; round 2 (rearing calf), 0.005% drywt. 2′FL in CMR) was 0.63. The Acute pneumonia cases (acute pneumonia; round 2 (rearing calf), group B, 0.005% drywt. 2′FL in CMR for 9 weeks, 12-week trial, 100 calves per group, placebo 27 cases) was 17 cases, the “Acute pneumonia cases, share of calves” value (acute pneumonia; round 2 (rearing calf), group B, placebo 27%) was 17% and the “Common odds ratio of acute pneumonia” value (acute pneumonia; rounds 1 and 2 integrated, standard CMR (placebo) versus 2′FL supplemented CMR, Mantel-Haenszel) was 1.35. For the same substance, the “Relative risk of getting diarrhea, group B versus placebo” value (diarrhea; round 1 (veal calf)) was 0.71, the Diarrhea cases (diarrhea; round 1 (veal calf), out of 290 calves, placebo 51 cases) was 36 cases and the “Odds ratio associated with diarrhea” value (diarrhea; round 1 (veal calf), standard CMR (placebo) versus 2′FL supplemented CMR) was 1.51. The Diarrhea cases (diarrhea; round 2 (rearing calf), 100 calves per group, placebo 1 case) was 0 cases, the Adverse effects ([1]; registered by the farm staffs, target animals (calves), both rounds) was “no adverse effects” and the Mortality ([1]; round 1, 6 months, group B (2′FL), placebo 4.14%, 262800 min) was 3.1%. The Calves dead ([1]; round 1, 6 months, group B (2′FL), placebo 12 (4.14%)) was 9 calves, the “Mortality, difference between groups” value ([1]; round 1, 6 months, Kaplan-Meier test) was “no significant difference in mortality between the experimental groups” and the “Mortality, difference between groups” value ([1]; round 2, 12 weeks, 7/400 calves died in all groups) was “no significant difference in mortality between the different groups”. The “Immune responses versus placebo (enrichment analysis)” value (jejunum; 4 calves per group) was “enhanced immune responses in several ways (T cell activation, cell differentiation, cell-cell adhesion, adaptive immune response)”, the “p. adjust, up-regulated gene ontology process ADAPTIVE_IMMUNE_RESPONSE” value (jejunum; group B versus placebo) was 4.15E−06 and the “p. adjust, up-regulated gene ontology process ADAPTIVE_IMMUNE_RESPONSE_BASED_ON_SOMATIC_RECOMBINATION_OF_IMMUNE_RECEPTORS_BUILT_FROM_IMMUNOGLOBULIN_SUPERFAMILY_DOMAINS” value (jejunum; group B versus placebo) was 0.00573. The “p. adjust, up-regulated gene ontology process EXTERNAL_SIDE_OF_PLASMA_MEMBRANE” value (jejunum; group B versus placebo) was 0.000673, the “p. adjust, up-regulated gene ontology process HETEROTYPIC_CELL_CELL_ADHESION” value (jejunum; group B versus placebo) was 0.003478 and the “p. adjust, up-regulated gene ontology process LEUKOCYTE_DIFFERENTIATION” value (jejunum; group B versus placebo) was 0.003462. The “p. adjust, up-regulated gene ontology process LYMPHOCYTE_MEDIATED_IMMUNITY” value (jejunum; group B versus placebo) was 0.003478, the “p. adjust, up-regulated gene ontology process MONONUCLEAR_CELL_DIFFERENTIATION” value (jejunum; group B versus placebo) was 0.000274 and the “p. adjust, up-regulated gene ontology process NEGATIVE_REGULATION_OF_ADAPTIVE_IMMUNE_RESPONSE” value (jejunum; group B versus placebo) was 0.002368. For the same substance, the “p. adjust, up-regulated gene ontology process NEGATIVE_REGULATION_OF_IMMUNE_SYSTEM_PROCESS” value (jejunum; group B versus placebo) was 0.001169, the “p. adjust, up-regulated gene ontology process NEGATIVE_REGULATION_OF_LEUKOCYTE_MEDIATED_IMMUNITY” value (jejunum; group B versus placebo) was 0.002368 and the “p. adjust, up-regulated gene ontology process NEGATIVE_REGULATION_OF_LYMPHOCYTE_MEDIATED_IMMUNITY” value (jejunum; group B versus placebo) was 0.00552. For the same substance, the “p. adjust, up-regulated gene ontology process POSITIVE_THYMIC_T_CELL_SELECTION” value (jejunum; group B versus placebo) was 0.00573, the “p. adjust, up-regulated gene ontology process POSITIVE_T_CELL_SELECTION” value (jejunum; group B versus placebo) was 0.003206 and the “p. adjust, up-regulated gene ontology process REGULATION_OF_ADAPTIVE_IMMUNE_RESPONSE” value (jejunum; group B versus placebo) was 0.003206. The “p. adjust, up-regulated gene ontology process REGULATION_OF_LEUKOCYTE_MEDIATED_IMMUNITY” value (jejunum; group B versus placebo) was 0.003478, the “p. adjust, up-regulated gene ontology process REGULATION_OF_T_CELL_ACTIVATION” value (jejunum; group B versus placebo) was 0.003668 and the “p. adjust, up-regulated gene ontology process T_CELL_ACTIVATION” value (jejunum; group B versus placebo) was 9.06E−06. For the same substance, the “p. adjust, up-regulated gene ontology process T_CELL_DIFFERENTIATION” value (jejunum; group B versus placebo) was 0.000662, the “p. adjust, up-regulated gene ontology process T_CELL_PROLIFERATION” value (jejunum; group B versus placebo) was 0.002368 and the “p. adjust, up-regulated gene ontology process T_CELL_RECEPTOR_COMPLEX” value (jejunum; group B versus placebo) was 0.000274.
